Here are results for 5 compounds from ChEMBL document CHEMBL1121675, “Syntheses of 9-acridine- and 2-phenanthridinemethanols as potential antimalarials” (1981).

Active and inactive are the calls of the source. The rule behind the calls is not given here.

Assay [1] deals with Plasmodium berghei. In words: Percent inhibition of hypoxanthine uptake by Plasmodium berghei. Format: functional.
Assay [2] relates to Plasmodium berghei. Description: Percent inhibition of adenosine uptake by Plasmodium berghei. Format: functional.
Assay [3] has as its system Mus musculus. Description: Decrease in life span of mice treated with compound dose of 160 mg/kg. Format: functional.
In assay [4] the test system is Salmonella typhimurium. In words: Mutagenic response at 1000 nmol/plate or lower for strain TA 98 of Salmonella Typhimurium; Not significant. Format: functional, organism-based. Conditions: Salmonella enterica subsp. enterica serovar Typhimurium.
Assay [5] deals with Salmonella typhimurium. In words: Mutagenic response at 1000 nmol/plate or lower for strain TA 100 of Salmonella Typhimurium; Not significant. Format: functional, organism-based. The note with it: Salmonella enterica subsp. enterica serovar Typhimurium.
For assay [6], the system named is Mus musculus. In words: Decrease in life span of mice treated with compound dose of 320 mg/kg. Format: functional.

On to `OC(CN1CCCCC1)c1c2ccccc2nc2ccccc12` (stereo not drawn), for which the Inhibition in assay [1] was found to be 50%; in assay [2] it was 31%. Regarding `CCCCN(CCCC)CCC(O)c1c2ccccc2nc2ccccc12` (stereo not drawn), in assay [3], the “Decrease in life span” value came to 0.4 days. For the compound `c1ccc2c(C3CO3)c3ccccc3nc2c1` (stereo not drawn), the Mutagenicity result in assay [4] and in assay [5] was “inactive” each time. Turning to `CCN(CC)CCCC(C)Nc1c2ccc(Cl)cc2nc2ccc(OC)cc12` (stereo not drawn) [QUINACRINE], the Inhibition in assay [1] amounted to 92%; in assay [2] it was 80%. As for `CCCCN(CCCC)CC(O)c1ccc2ncc3ccccc3c2c1` (stereo not drawn), the “Decrease in life span” value in assay [6] stood at 0.1 days.
